Data: patent US5776433A, “Flunisolide aerosol formulations” (Minnesota Mining and Manufacturing Company, priority 1995, dated 1998)

Format: physicochemical
Excerpt: This intermediate level of solubility can lead to particle size increase of the drug in a suspension formulation. It is well known that particles having a diameter of greater than about 10 μm are not suitable for inhalation to the lung. Therefore particle size increase can threaten the utility of a pharmaceutical aerosol formulation.

## CC1(C)O[C@@H]2C[C@H]3[C@@H]4C[C@H](F)C5=CC(=O)C=C[C@]5(C)[C@H]4[C@@H](O)C[C@]3(C)[C@]2(C(=O)CO)O1 [flunisolide hemihydrate, 6α-fluoro-11β, 16α, 17,21-tetrahydroxypregna-1,4-diene-3,20-dione cyclic 16,17-acetal with acetone]
  solubility in 1:1 blend of HFA 134a and HFA 227: about 0.007 % by weight
  solubility in HFA 134a: about 0.006 % by weight
  solubility in HFA 227: about 0.004 % by weight
